Laboratory results from the supplement of paper PMC10307832.

Compound: C1CCC(CC1)N(CCNCCC2=C3C(=C(C=C2)O)NC(=O)CO3)C(=O)CCNCCC4=CC(=C(C=C4)Cl)Cl [AZ505] + O=C(c1cc(Cc2n[nH]c(=O)c3ccccc23)ccc1F)N1CCN(C(=O)C2CC2)CC1 [Olaparib] (partner 8 µM)
Experiment: relative viability (nuclei count vs DMSO), 5 days (fraction); higher = more cells survive
Details: first compound 0.08 µM
Outline: (§1)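 Relative viability divides the nuclei count in treated wells by that in vehicle wells. Lung cancer cell lines were seeded in 1536-well plates, dosed by pin tool the next day, and fixed and stained after 5 days in one step with final 0.05% Triton X-100, 1% formaldehyde and 1 ug/ml Hoechst. Dosing was a single drug or a fixed anchor-drug dose plus five library-drug doses (not always all listed) in √10 steps, and values are medians of duplicate plates imaged at 4×.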

Going from LC-2-ad to NCI-H1944, the relative viability falls from 0.683 to 0.39.

Compared with NCI-H1975, RERF-LC-KJ is higher in relative viability: 0.747 for the first, 0.947 for the second.

Going from ABC-1 to NCI-H358, the relative viability falls from 0.688 to 0.569.

Compared with NCI-H650, PC-3 [JPC-3] is higher in relative viability: 0.386 for the first, 0.918 for the second.

Same assay, conditions: first compound 0.253 µM

Going from LC-2-ad to NCI-H1944, the relative viability falls from 0.696 to 0.411.

Going from NCI-H1975 to RERF-LC-KJ, the relative viability rises from 0.883 to 0.934.

Compared with NCI-H358, NCI-H650 is lower in relative viability: 0.761 for the first, 0.462 for the second.

Same assay, conditions: first compound 0.8 µM

First: LC-2-ad
Second: NCI-H1944
The relative viability of the first is higher: 0.648 for the first, 0.497 for the second.

Going from NCI-H1975 to RERF-LC-KJ, the relative viability rises from 0.75 to 0.995.

Going from ABC-1 to NCI-H358, the relative viability falls from 0.841 to 0.584.

First: NCI-H650
Second: PC-3 [JPC-3]
The relative viability of the first is lower: 0.425 for the first, 0.944 for the second.

Same assay, conditions: first compound 2.53 µM

Compared with LC-2-ad, NCI-H1944 is lower in relative viability: 0.713 for the first, 0.413 for the second.

Going from NCI-H1975 to RERF-LC-KJ, the relative viability rises from 0.775 to 0.91.

Compared with ABC-1, NCI-H358 is lower in relative viability: 0.807 for the first, 0.604 for the second.

Going from NCI-H650 to PC-3 [JPC-3], the relative viability rises from 0.497 to 1.01.

Same assay, conditions: first compound 8 µM

First: LC-2-ad
Second: NCI-H1944
The relative viability of the first is higher: 0.741 for the first, 0.423 for the second.

Compared with NCI-H1975, RERF-LC-KJ is lower in relative viability: 0.904 for the first, 0.842 for the second.

First: ABC-1
Second: NCI-H358
The relative viability of the first is higher: 1.2 for the first, 0.59 for the second.

Going from NCI-H650 to PC-3 [JPC-3], the relative viability rises from 0.356 to 1.15.

Compound: Cn1c(=O)n(-c2ccc(C(C)(C)C#N)cc2)c2c3cc(-c4cnc5ccccc5c4)ccc3ncc21 [Dactolisib] + CS(=O)(=O)N1CCN(Cc2cc3nc(-c4cccc5[nH]ncc45)nc(N4CCOCC4)c3s2)CC1 [Pictilisib] (partner 1 µM)
Experiment: as above
Details: first compound 0.002 µM
Outline: as §1

Compared with LC-2-ad, NCI-H1944 is higher in relative viability: 0.291 for the first, 0.36 for the second.

First: NCI-H1975
Second: RERF-LC-KJ
The relative viability of the first is lower: 0.26 for the first, 0.562 for the second.

Going from ABC-1 to NCI-H358, the relative viability falls from 0.675 to 0.345.

Going from NCI-H650 to PC-3 [JPC-3], the relative viability falls from 0.86 to 0.78.

Same assay, conditions: first compound 0.006325 µM

First: NCI-H1944
Second: NCI-H1975
The relative viability of the first is higher: 0.334 for the first, 0.27 for the second.

Going from RERF-LC-KJ to ABC-1, the relative viability rises from 0.519 to 0.618.

Going from NCI-H358 to NCI-H650, the relative viability rises from 0.302 to 0.771.

Work on PC-3 [JPC-3] yielded a relative viability of 0.784.

Same assay, conditions: first compound 0.02 µM

Compared with LC-2-ad, NCI-H1944 is lower in relative viability: 0.428 for the first, 0.305 for the second.

Compared with NCI-H1975, RERF-LC-KJ is higher in relative viability: 0.232 for the first, 0.466 for the second.

Going from ABC-1 to NCI-H358, the relative viability falls from 0.627 to 0.337.

Compared with NCI-H650, PC-3 [JPC-3] is lower in relative viability: 0.704 for the first, 0.696 for the second.

Same assay, conditions: first compound 0.06325 µM

First: LC-2-ad
Second: NCI-H1944
The relative viability of the first is higher: 0.389 for the first, 0.233 for the second.

Going from NCI-H1975 to RERF-LC-KJ, the relative viability rises from 0.2 to 0.41.

First: ABC-1
Second: NCI-H358
The relative viability of the first is higher: 0.402 for the first, 0.196 for the second.

First: NCI-H650
Second: PC-3 [JPC-3]
The relative viability of the first is lower: 0.558 for the first, 0.697 for the second.

Same assay, conditions: first compound 0.2 µM

Going from LC-2-ad to NCI-H1944, the relative viability falls from 0.262 to 0.253.

Going from NCI-H1975 to RERF-LC-KJ, the relative viability rises from 0.175 to 0.293.

Going from ABC-1 to NCI-H358, the relative viability falls from 0.331 to 0.215.

First: NCI-H650
Second: PC-3 [JPC-3]
The relative viability of the first is lower: 0.451 for the first, 0.572 for the second.

Compound: Cn1c(=O)n(-c2ccc(C(C)(C)C#N)cc2)c2c3cc(-c4cnc5ccccc5c4)ccc3ncc21 [Dactolisib] + Nc1ncn([C@H]2C[C@H](O)[C@@H](CO)O2)c(=O)n1 [Decitabine] (partner 2 µM)
Experiment: as above
Details: first compound 0.002 µM
Outline: as §1

First: LC-2-ad
Second: NCI-H1944
The relative viability of the first is higher: 0.888 for the first, 0.502 for the second.

Compared with NCI-H1975, RERF-LC-KJ is higher in relative viability: 0.387 for the first, 0.752 for the second.

First: ABC-1
Second: NCI-H358
The relative viability of the first is higher: 1.22 for the first, 0.303 for the second.

Going from NCI-H650 to PC-3 [JPC-3], the relative viability rises from 0.488 to 0.87.

Same assay, conditions: first compound 0.006325 µM

Going from LC-2-ad to NCI-H1944, the relative viability falls from 0.871 to 0.416.

First: NCI-H1975
Second: RERF-LC-KJ
The relative viability of the first is lower: 0.349 for the first, 0.726 for the second.

Compared with ABC-1, NCI-H358 is lower in relative viability: 1.02 for the first, 0.204 for the second.

First: NCI-H650
Second: PC-3 [JPC-3]
The relative viability of the first is lower: 0.27 for the first, 0.783 for the second.

Same assay, conditions: first compound 0.02 µM

Compared with LC-2-ad, NCI-H1944 is lower in relative viability: 0.727 for the first, 0.45 for the second.

Compared with NCI-H1975, RERF-LC-KJ is higher in relative viability: 0.394 for the first, 0.644 for the second.

Going from ABC-1 to NCI-H358, the relative viability falls from 1.13 to 0.202.

First: NCI-H650
Second: PC-3 [JPC-3]
The relative viability of the first is lower: 0.364 for the first, 0.878 for the second.

Same assay, conditions: first compound 0.06325 µM

Compared with LC-2-ad, NCI-H1944 is lower in relative viability: 0.784 for the first, 0.272 for the second.

First: NCI-H1975
Second: RERF-LC-KJ
The relative viability of the first is lower: 0.286 for the first, 0.316 for the second.

Compared with ABC-1, NCI-H358 is lower in relative viability: 0.999 for the first, 0.141 for the second.

First: NCI-H650
Second: PC-3 [JPC-3]
The relative viability of the first is lower: 0.282 for the first, 0.786 for the second.

Same assay, conditions: first compound 0.2 µM

First: LC-2-ad
Second: NCI-H1944
The relative viability of the first is higher: 0.73 for the first, 0.262 for the second.

Going from NCI-H1975 to RERF-LC-KJ, the relative viability rises from 0.25 to 0.443.

Compared with ABC-1, NCI-H358 is lower in relative viability: 0.827 for the first, 0.127 for the second.

Going from NCI-H650 to PC-3 [JPC-3], the relative viability rises from 0.302 to 0.655.

Compound: Cn1c(=O)n(-c2ccc(C(C)(C)C#N)cc2)c2c3cc(-c4cnc5ccccc5c4)ccc3ncc21 [Dactolisib] + NC(=O)Nc1cc(-c2cccc(F)c2)sc1C(=O)N[C@H]1CCCNC1 [AZD7762] (partner 0.2 µM)
Experiment: as above
Details: first compound 0.002 µM
Outline: as §1

Compared with LC-2-ad, NCI-H1944 is lower in relative viability: 0.812 for the first, 0.374 for the second.

Going from NCI-H1975 to RERF-LC-KJ, the relative viability rises from 0.659 to 1.02.

Compared with ABC-1, NCI-H358 is lower in relative viability: 0.925 for the first, 0.474 for the second.

Going from NCI-H650 to PC-3 [JPC-3], the relative viability falls from 1.04 to 0.841.

Same assay, conditions: first compound 0.006325 µM

First: LC-2-ad
Second: NCI-H1944
The relative viability of the first is higher: 0.816 for the first, 0.47 for the second.

Compared with NCI-H1975, RERF-LC-KJ is higher in relative viability: 0.695 for the first, 0.922 for the second.

First: ABC-1
Second: NCI-H358
The relative viability of the first is higher: 0.805 for the first, 0.545 for the second.

Compared with NCI-H650, PC-3 [JPC-3] is lower in relative viability: 1.07 for the first, 0.788 for the second.

Same assay, conditions: first compound 0.02 µM

Compared with LC-2-ad, NCI-H1944 is lower in relative viability: 0.86 for the first, 0.401 for the second.

Going from NCI-H1975 to RERF-LC-KJ, the relative viability rises from 0.63 to 0.818.

Going from ABC-1 to NCI-H358, the relative viability falls from 0.738 to 0.559.

Compared with NCI-H650, PC-3 [JPC-3] is lower in relative viability: 0.9 for the first, 0.685 for the second.

Same assay, conditions: first compound 0.06325 µM

Compared with LC-2-ad, NCI-H1944 is lower in relative viability: 0.71 for the first, 0.24 for the second.

First: NCI-H1975
Second: RERF-LC-KJ
The relative viability of the first is lower: 0.488 for the first, 0.572 for the second.

Going from ABC-1 to NCI-H358, the relative viability falls from 0.761 to 0.445.

Going from NCI-H650 to PC-3 [JPC-3], the relative viability falls from 0.79 to 0.666.

Same assay, conditions: first compound 0.2 µM

Going from LC-2-ad to NCI-H1944, the relative viability falls from 0.593 to 0.195.

Compared with NCI-H1975, RERF-LC-KJ is higher in relative viability: 0.388 for the first, 0.489 for the second.

Compared with ABC-1, NCI-H358 is lower in relative viability: 0.557 for the first, 0.188 for the second.

First: NCI-H650
Second: PC-3 [JPC-3]
The relative viability of the first is higher: 0.469 for the first, 0.353 for the second.
